From patent US9522923B2, “Selective BACE1 inhibitors” (Eli Lilly and Company, priority 2015, dated 2016)
Read-outs that look alike come from different tables or passages of the source.

What was measured:
human BACE1(1-460):Fc = target: T1, human BACE1(1-460):Fc (Homo sapiens, UniProt P56817); experiment: BACE1 FRET Assay; type: biochemical; settings: purified recombinant huBACE1:Fc, FRET substrate based on APP; Mean±SEM 0.48, n=4
T1 construct: made in house; host or cells: HEK293 (transient transfection, purified from conditioned media by Protein A)
T1 sequence (P56817 22-460): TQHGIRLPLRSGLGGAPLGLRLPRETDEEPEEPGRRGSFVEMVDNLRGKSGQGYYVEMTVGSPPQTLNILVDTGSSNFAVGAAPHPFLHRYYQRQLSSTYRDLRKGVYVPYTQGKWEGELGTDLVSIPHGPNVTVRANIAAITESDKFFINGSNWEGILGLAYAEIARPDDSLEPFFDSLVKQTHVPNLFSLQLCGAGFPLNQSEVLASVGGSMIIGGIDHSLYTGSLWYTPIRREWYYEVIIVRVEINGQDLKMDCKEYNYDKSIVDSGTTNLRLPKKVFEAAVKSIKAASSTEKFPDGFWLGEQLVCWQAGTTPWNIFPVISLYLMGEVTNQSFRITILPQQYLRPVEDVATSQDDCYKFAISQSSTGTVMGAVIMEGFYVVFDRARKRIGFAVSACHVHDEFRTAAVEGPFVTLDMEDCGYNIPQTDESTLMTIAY
Procedure: (§1) To assess selectivity of BACE1 over BACE2, the test compound is evaluated in FRET-based enzymatic assays using specific substrates for BACE1 and BACE2 as described below. For in vitro enzymatic and cellular assays, the test compound is prepared in DMSO to make up a 10 mM stock solution. The stock solution is serially diluted in DMSO to obtain a ten-point dilution curve with final compound concentrations ranging from 10 μM to 0.05 nM in a 96-well round-bottom plate before conducting the in vitro enzymatic and whole cell assays.
Human BACE1 (accession number: AF190725) and human BACE2 (accession number: AF 204944) are cloned from total brain cDNA by RT-PCR. The nucleotide sequences corresponding to amino acid sequences #1 to 460 are inserted into the cDNA encoding human IgG1 (Fc) polypeptide (Vassar et al., Science, 286, 735-742 (1999)). […]
(§2) Conditioned media of HEK293 cell transiently transfected with huBACE1:Fc or huBACE2:Fc cDNA are collected. […] The purity of final product is assessed by electrophoresis in 4-20% Tris-Glycine SDS-PAGE. […]
Serial dilutions of the test compound are prepared as described above. […] The RFU of the mixture at time 0 is recorded at excitation wavelength 355 nm and emission wavelength 460 nm, after brief mixing on a plate shaker. […] The RFU at the end of incubation is recorded with the same excitation and emission settings used at time 0. […]

human BACE2 (1-460):Fc = target: T2, human BACE2 (1-460):Fc (Homo sapiens, UniProt Q9Y5Z0); experiment: BACE2 TMEM27 FRET Assay; type: biochemical
T2 construct: made in house; host or cells: HEK293 (transient transfection, purified from conditioned media by Protein A)
T2 sequence (Q9Y5Z0 21-460): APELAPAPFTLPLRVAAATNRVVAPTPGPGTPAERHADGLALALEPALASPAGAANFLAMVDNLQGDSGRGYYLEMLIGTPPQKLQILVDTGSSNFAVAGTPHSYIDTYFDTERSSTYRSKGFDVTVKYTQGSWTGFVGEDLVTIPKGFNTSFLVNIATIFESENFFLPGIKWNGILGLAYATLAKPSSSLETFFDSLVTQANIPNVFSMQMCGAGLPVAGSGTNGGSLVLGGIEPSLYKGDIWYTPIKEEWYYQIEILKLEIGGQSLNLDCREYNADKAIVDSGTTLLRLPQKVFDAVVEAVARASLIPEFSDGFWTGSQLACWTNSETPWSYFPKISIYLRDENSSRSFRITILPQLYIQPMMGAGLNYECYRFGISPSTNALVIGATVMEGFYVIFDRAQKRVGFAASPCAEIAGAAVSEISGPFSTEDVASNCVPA
Procedure: as §1
Human BACE1 (accession number: AF190725) and human BACE2 (accession number: AF 204944) are cloned from total brain cDNA by RT-PCR. […]
as §2
Transmembrane protein 27 (TMEM27) (Accession Number NM_020665), also known as Collectrin) is a recently described substrate for BACE2, but not BACE1 (Esterhazy, et al, Cell Metabolism, 14, 365-377 (2011)). […] The RFU of the mixture at time 0 is recorded at excitation wavelength 430 nm and emission wavelength 535 nm. […] The RFU at the end of incubation is recorded with the same excitation and emission settings used at time 0. […]

BACE1 = target: T3, BACE1 (Homo sapiens, UniProt P56817); experiment: SH-SY5YAPP695Wt Whole Cell Assay (Abeta ELISA); type: cell-based; settings: 24 hours incubation, conditioned media, Mean ± SEM, n = 4
T3 construct: endogenous in cells; host or cells: SH-SY5Y (ATCC CRL2266) stably expressing human APP695Wt
T3 sequence (P56817 46-501): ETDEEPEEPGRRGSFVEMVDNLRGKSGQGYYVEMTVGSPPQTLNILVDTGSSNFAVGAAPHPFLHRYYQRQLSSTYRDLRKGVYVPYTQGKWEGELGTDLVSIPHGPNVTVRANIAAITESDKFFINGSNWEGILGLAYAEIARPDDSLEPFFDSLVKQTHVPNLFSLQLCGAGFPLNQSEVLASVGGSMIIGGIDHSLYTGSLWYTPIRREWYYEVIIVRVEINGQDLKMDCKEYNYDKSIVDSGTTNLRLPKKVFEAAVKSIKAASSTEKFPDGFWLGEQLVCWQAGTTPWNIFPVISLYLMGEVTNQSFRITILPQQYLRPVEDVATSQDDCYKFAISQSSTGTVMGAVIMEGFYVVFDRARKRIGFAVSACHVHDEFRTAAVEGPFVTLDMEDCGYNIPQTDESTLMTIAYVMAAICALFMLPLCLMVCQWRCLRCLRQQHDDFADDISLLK
Procedure: as §1
The routine whole cell assay for the measurement of inhibition of BACE1 activity utilizes the human neuroblastoma cell line SH-SY5Y (ATCC Accession No. CRL2266) stably expressing a human APP695Wt cDNA. Cells are routinely used up to passage number 6 and then discarded.
SH-SY5YAPP695Wt cells are plated in 96 well tissue culture plates at 5.0×10^4 cells/well in 200 μL culture media (50% MEM/EBSS and Ham's F12, lx each sodium pyruvate, non-essential amino acids and Na bicarbonate containing 10% FBS). The following day, media is removed from the cells, fresh media added then incubated at 37° C. for 24 hours in the presence/absence of test compound at the desired concentration range.
At the end of the incubation, conditioned media are analyzed for evidence of beta-secretase activity by analysis of Abeta peptides 1-40 and 1-42 by specific sandwich ELISAs. […]

## CC(F)(F)[C@H]1OC[C@]2(c3cc(NC(=O)c4cnc(-n5cncn5)cn4)ccc3F)N=C(N)SC[C@H]12 [Example 1, N-[3-[(4aS,5S,7aS)-2-Amino-5-(1,1-difluoroethyl)-4,4a,5,7-tetrahydrofuro[3,4-d][1,3]thiazin-7a-yl]-4-fluoro-phenyl]-5-(1,2,4-triazol-1-yl)pyrazine-2-carboxamide]
Human BACE1(1-460):Fc
  IC50: 1.19 nM
Human BACE2 (1-460):Fc; huBACE2:Fc, TMEM27 FRET substrate, Mean±SEM 202, n=4
  IC50: 479 nM
Human BACE2 (1-460):Fc; selectivity for BACE1 over BACE2
  BACE2 IC50 / BACE1 IC50 ratio (selectivity for BACE1): about 400 fold
BACE1; read-out: SH-SY5YAPP695Wt A-beta (1-40) ELISA IC50
  IC50: 0.385 ± 0.163 nM
BACE1; read-out: SH-SY5YAPP695Wt A-beta (1-42) ELISA IC50
  IC50: 0.381 ± 0.266 nM
